Experiments:
Assay type in all cases: cell-based
D556 cells [1] = assay: Apoptotic cell death of D556 cells after p53 and mTOR shRNA knockdown and drug treatment (trypan blue, annexin V/PI); conditions: p53 loss plus mTOR knockdown
Procedure: FIGS. 2A, 2B and 2C show the effect of silencing of p53 and mTOR in D556 cells. FIG. 2A and FIG. 2B are bar graphs showing the proportion of cells undergoing apoptotic cell death as a result of infection with p53 shRNA, control pLKO, mTOR and both p53 and mTOR lentivirus in D556 cells treated for 18 hrs with DMSO, VMY (30 uM) or doxorubicin (1 uM) as assessed using Trypan blue (FIG. 2A) and annexin V and propidium iodide (PI) staining (FIG. 2B) and measured by flow cytometry. Data are shown as percent change in staining versus pLKO-control infected cells.
The proportion of cells undergoing apoptotic cell death as a result of infection with p53 shRNA, control pLKO, mTOR and both p53 and mTOR lentivirus in D556 cells treated for 18 hrs with DMSO, VMY (30 uM) or doxorubicin (1 uM) was assessed using trypan blue (FIG. 2A) and annexin V and propidium iodide (PI) staining (FIG. 2B) and measured by flow cytometry. Data were determined as the percent change in staining versus pLKO-control infected cells.

pmTOR in D556 cells = assay: Western blot for pmTOR in D556 cells infected with p53 shRNA or control pLKO lentivirus
Procedure: D556 cells were infected with either p53 shRNA or control pLKO lentivirus and Western blotting was performed to show the effect of p53 inhibition on pmTOR.

D556 cells [2] = assay: Cell survival of D556 cells after p53 knockdown and drug treatment; conditions: 18 hours treatment
Procedure: (§1) Comparative sensitivities of D556 cells treated with cisplatin (FIG. 6B) or vincristine (FIG. 6C) were tested at the concentrations shown and in the presence or absence of thymosin β-4 (5 nM). * p<0.05, N>3 separate experiments.
(§2) For chemosensitivity testing, the effects of p53 knockdown on cell survival of D556 cells treated with doxorubicin (dox), vincristine (vinc) and cisplatin (csp) was further assessed.

D556 cells [3] = assay: Chemosensitivity testing of D556 cells with cisplatin or vincristine in presence or absence of Tβ-4; conditions: Tβ-4 5 nM; p<0.05
Procedure: as §1, §2

D283 cells = assay: Cell viability of D283 cells treated with chemotherapeutic agents with or without Tβ-4 (propidium iodide staining, flow cytometry)
Procedure: (§3) FIGS. 4A, 4B, and 4C show the effects of thymosin beta-4 (Tβ-4) on D556 and D283 cell survival. For cell viability assays, D556 cells (FIG. 4A) and D283 cells (FIG. 4B) were treated with DMSO, doxorubicin, or VMY in the presence or absence of Tβ-4, and cell viability as measured using propidium iodide (PI) staining with flow cytometry. Control cells were untreated. […] GADPH expression was used as a control.
(§4) The effect of Tβ-4 was evaluated using a cell viability assay for D556 and D283 cells. D556 and D283 cells were treated with 5 nM Tβ-4 and either doxorubicin or VMY. Viability of D556 cells (FIG. 4A) and of D283 cells (FIG. 4B) was measured using propidium iodide (PI) staining with flow cytometry. A dose response curve was performed for D556 cells treated with vincristine alone or vincristine plus Tβ-4 using a cellular proliferation assay kit wst-1 (FIG. 4C).

D556 cells [4] = assay: Cell viability of D556 cells treated with chemotherapeutic agents with or without Tβ-4 (propidium iodide staining, flow cytometry; wst-1)
Procedure: as §3, §4

[5] = test system: Akt, PP2A (α and c subunit), PARP and RIP1 in D556 cells; assay: Western blot of D556 cells after Tβ-4 treatment
Procedure: FIGS. 5A, 5B, 5C and 5D are Western blots showing that Tβ-4 treatment of D556 cells induces expression of Akt, PP2A (α and c subunits), PARP, and RIP1.
To further assess the mechanism of effect of Tβ-4 treatment of D556 cells, Western blot were performed.

p110 = assay: Cell viability of cells overexpressing p110 with added mTOR/AKT signaling inhibitor
Procedure: FIGS. 3A, 3B, 3C, 3D, and 3E show the effects of over expression of p110-caax on D556 and D283 cell survival. D556 cells were transformed with p110 or control plasmid, and Western blots for p110 and β-actin were run (FIG. 3A). The effects of overexpression of p110 on cell viability were determined via Trypan blue assay on D283 cells (FIG. 3B, upper right panel) and D556 cells (FIG. 3C, lower left panel) showing Trypan blue assay results; lower middle panel showing). Cell viability for D556 cells was also measured by propidium iodide (PI) staining and measured by flow cytometry (FIG. 3D, lower middle panel)). Reversal of chemosensitivity induced by p110 overexpression is shown when an inhibitor of mTOR/AKT signaling (Rad001/Everolimus) is added (FIG. 3E)
D556 cells were transformed with p110 or control plasmid and Western blots for p110 and β-actin were run (FIG. 3A). The effects of overexpression of p110 on cell viability were determined via Trypan blue assay on D283 cells (FIG. 3B) and D556 cells (FIG. 3C). Cell viability for D556 cells was also measured by propidium iodide (PI) staining and measured by flow cytometry (FIG. 3D).

[6] = with doxorubicin, vincristine, VMY-1-103

Compound: COc1cccc2c1C(=O)c1c(O)c3c(c(O)c1C2=O)C[C@@](O)(C(=O)CO)C[C@@H]3O[C@H]1C[C@H](N)[C@H](O)[C@H](C)O1 [doxorubicin]
- chemoresistance of p53-suppressed D556 cells after shRNA knockdown of mTOR (D556 cells [1]): restoring chemoresistance
- pmTOR level in cells infected with p53 shRNA vs control pLKO lentivirus (pmTOR in D556 cells): induction of pmTOR
- cell survival of p53 shRNA infected D556 cells vs control pLKO lentivirus (D556 cells [2]): lower percentage of cell survival

Compound: Tβ-4: multifunctional regenerative peptide, sequence MSDKPDMAEIEKFDKSKLKKTETQEKNPLPSKETIEQEKQAGES (SEQ ID NO:1); PI3K activator; commercially available as RGN-352 (MSDKPDMAEIEKFDKSKLKKTETQEKNPLPSKETIEQEKQAGES; listed as Homo sapiens)
- sensitivity of D556 cells to cisplatin in presence vs absence of Tβ-4 (D556 cells [3]): significantly more sensitivity
- sensitivity of D556 cells to vincristine in presence vs absence of Tβ-4 (D556 cells [3]): significantly more sensitivity
- Tβ-4 sensitivity of cell line (D283 cells; D286 cells): insensitive
- protection of D283 (p53 low) cells from chemotherapeutic agents (D283 cells; [6]): protects D283 (p53 low) cells from the same drugs
- Tβ-4 sensitivity of cell line (D556 cells [4]; D556 cells): sensitive
- sensitization of MB cells with high p53 levels to chemotherapeutic agents (D556 cells [4]; [6]): sensitizes MB cells with high p53 levels to chemotherapeutic agents
- protein induction by Western blot [5]: induces Akt, PP2A (α and c subunit), PARP and RIP1

Compound: CC[C@]1(O)C[C@H]2CN(CCc3c([nH]c4ccccc34)[C@@](C(=O)OC)(c3cc4c(cc3OC)N(C=O)[C@H]3[C@@](O)(C(=O)OC)[C@H](OC(C)=O)[C@]5(CC)C=CCN6CC[C@]43[C@@H]65)C2)C1 [vincristine]
- chemoresistance of p53-suppressed D556 cells after shRNA knockdown of mTOR (D556 cells [1]): restoring chemoresistance
- cell survival of p53 shRNA infected D556 cells vs control pLKO lentivirus (D556 cells [2]): lower percentage of cell survival

Compound: CO[C@H]1C[C@@H]2CC[C@@H](C)[C@@](O)(O2)C(=O)C(=O)N2CCCC[C@H]2C(=O)O[C@H]([C@H](C)C[C@@H]2CC[C@@H](OCCO)[C@H](OC)C2)CC(=O)[C@H](C)/C=C(\C)[C@@H](O)[C@@H](OC)C(=O)[C@H](C)C[C@H](C)/C=C/C=C/C=C/1C [Rad001/Everolimus, Everolimus]
- effect on chemosensitivity induced by p110 overexpression (p110): reversed the chemosensitivity induced by p110

Compound: N.N.[Cl][Pt][Cl] [cisplatin]
- cell survival of p53 shRNA infected D556 cells vs control pLKO lentivirus (D556 cells [2]): lower percentage of cell survival

Compound: CC(C)[C@H](CO)Nc1nc(Nc2ccc(C(=O)NCCNS(=O)(=O)c3cccc4c(N(C)C)cccc34)c(Cl)c2)c2ncn(C(C)C)c2n1 [VMP]
- pmTOR level in cells infected with p53 shRNA vs control pLKO lentivirus (pmTOR in D556 cells): induction of pmTOR
